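Compound exposure: 48 hours, 5 concentrations, 96-well plates. Here, GI50 denotes the concentration required for 50% inhibition of growth.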 Calls of active or inactive are those of the source. Cut-off read from the data, not from the text of the source: active = GI50 up to about 1.1 µM and inactive = higher.
Experiments:
Experiment in all cases: DTP human tumour cell line panel, 48 h
[1] = system: ACHN
[2] = system: COLO 205
[3] = system: HCC 2998
[4] = system: HCT-15
[5] = system: MDA-N
[6] = system: NCI-H226
[7] = system: NCI-H460
[8] = system: RPMI-8226
[9] = system: SF-268
[10] = system: SF-539
[11] = system: SK-MEL-2
[12] = system: SN12C
[13] = system: SNB-75
[14] = system: SR
[15] = system: TK-10
[16] = system: UACC-257
[17] = system: A498
[18] = system: BT-549
[19] = system: HL-60

With O=C(Oc1ccc(C(c2c(O)c3ccccc3oc2=O)c2c(O)c3ccccc3oc2=O)cc1)c1ccc(C(=O)c2ccccc2)cc1 the GI50 [1] was 19.3 µM (inactive), the GI50 [2] was 29.2 µM (inactive) and the GI50 [3] was 18.8 µM (inactive). The GI50 [4] was 37.2 µM, the GI50 [5] was 36.1 µM (inactive) and the GI50 [6] was 10.6 µM (inactive). The GI50 [7] was 22.1 µM (inactive), the GI50 [8] was 22.6 µM (inactive) and the GI50 [9] was 25.6 µM (inactive). For the same compound, the GI50 [10] was 17.3 µM (inactive), the GI50 [11] was 17.8 µM (inactive) and the GI50 [12] was 43 µM (inactive). For the same compound, the GI50 [13] was 17.7 µM (inactive), the GI50 [14] was 26.1 µM (inactive) and the GI50 [15] was 17.9 µM (inactive). The GI50 [16] was 17.2 µM (inactive).
In the case of CCOC(=O)c1nc2ccc(C(F)(F)F)cc2nc1Oc1ccc(C(=O)OC)cc1, the GI50 [17] was > 100 µM (inactive), the GI50 [1] was > 100 µM (inactive) and the GI50 [18] was 39.1 µM (inactive). For the same compound, the GI50 [2] was > 100 µM (inactive), the GI50 [3] was > 100 µM (inactive) and the GI50 [4] was > 100 µM. The GI50 [19] was > 100 µM (inactive), the GI50 [6] was 45.5 µM (inactive) and the GI50 [7] was 54.5 µM (inactive). For the same compound, the GI50 [8] was > 100 µM (inactive), the GI50 [9] was 76.4 µM (inactive) and the GI50 [10] was 77.8 µM (inactive). The GI50 [11] was 32.1 µM (inactive), the GI50 [13] was 50.4 µM (inactive) and the GI50 [14] was > 100 µM (inactive). The GI50 [15] was 45.8 µM (inactive) and the GI50 [16] was > 100 µM (inactive).
CN1CN(c2ccccc2)C2(CCN(Cc3nc4ccccc4s3)CC2)C1=O was tested, and the GI50 [17] was 15.9 µM (inactive), the GI50 [1] was 19.6 µM (inactive) and the GI50 [18] was 16.1 µM (inactive). The GI50 [2] was 18.1 µM (inactive), the GI50 [4] was 18.8 µM and the GI50 [19] was 11.4 µM (inactive). For the same compound, the GI50 [6] was 16.4 µM (inactive), the GI50 [8] was 16 µM (inactive) and the GI50 [9] was 20.3 µM (inactive). The GI50 [10] was 17.8 µM (inactive), the GI50 [11] was 18.6 µM (inactive) and the GI50 [12] was 17.5 µM (inactive). For the same compound, the GI50 [13] was 16.7 µM (inactive), the GI50 [14] was 14.8 µM (inactive) and the GI50 [15] was 16.3 µM (inactive). For the same compound, the GI50 [16] was 16.6 µM (inactive).
For CC1=C(C)CC2(C=C(C(C)(C)C)C(=O)C(C(C)(C)C)=C2)SC1, the GI50 [17] was 17.5 µM (inactive), the GI50 [2] was 17.6 µM (inactive) and the GI50 [19] was 18.3 µM (inactive). The GI50 [5] was 27.2 µM (inactive), the GI50 [6] was 17 µM (inactive) and the GI50 [7] was 27 µM (inactive). The GI50 [8] was 12.8 µM (inactive), the GI50 [9] was 19.5 µM (inactive) and the GI50 [10] was 18.3 µM (inactive). The GI50 [11] was 12.3 µM (inactive), the GI50 [12] was 17.4 µM (inactive) and the GI50 [13] was 16.1 µM (inactive). For the same compound, the GI50 [14] was 26.5 µM (inactive), the GI50 [15] was 18.6 µM (inactive) and the GI50 [16] was 26.6 µM (inactive).
For Cn1c2c(c3c(=O)[nH]ncc31)CCCc1ccccc1-2, the GI50 [17] was 22.4 µM (inactive), the GI50 [1] was 26.8 µM (inactive) and the GI50 [18] was 31.2 µM (inactive). The GI50 [2] was 17.9 µM (inactive), the GI50 [4] was 29.8 µM and the GI50 [19] was 0.0817 µM (active). The GI50 [6] was 27.2 µM (inactive), the GI50 [7] was 23.6 µM (inactive) and the GI50 [8] was 17.4 µM (inactive). The GI50 [9] was 29.2 µM (inactive), the GI50 [10] was 35.7 µM (inactive) and the GI50 [11] was 20.8 µM (inactive). For the same compound, the GI50 [12] was 25.6 µM (inactive), the GI50 [13] was 23.6 µM (inactive) and the GI50 [14] was 0.0993 µM (active). The GI50 [15] was 28.7 µM (inactive) and the GI50 [16] was 34.1 µM (inactive).
Cc1ccc(/C(Cl)=C/C=C(C#N)C#N)cc1 was tested, and the GI50 [1] was 2.45 µM (inactive), the GI50 [2] was 3.31 µM (inactive) and the GI50 [4] was 2.1 µM. The GI50 [19] was 2 µM (inactive), the GI50 [6] was 4.39 µM (inactive) and the GI50 [7] was 3.8 µM (inactive). For the same compound, the GI50 [8] was 2.35 µM (inactive), the GI50 [9] was 5.9 µM (inactive) and the GI50 [10] was 2.64 µM (inactive). For the same compound, the GI50 [11] was 6.32 µM (inactive), the GI50 [12] was 3.72 µM (inactive) and the GI50 [13] was 13.2 µM (inactive). The GI50 [14] was 1.37 µM (inactive), the GI50 [15] was 2.25 µM (inactive) and the GI50 [16] was 2.52 µM (inactive).
With COC(=O)/C=C/c1ccc2c(c1)CCC2 the GI50 [17] was 27.2 µM (inactive), the GI50 [1] was 23.7 µM (inactive) and the GI50 [3] was > 100 µM (inactive). The GI50 [4] was 17.3 µM, the GI50 [19] was 27.5 µM (inactive) and the GI50 [5] was > 100 µM (inactive). For the same compound, the GI50 [7] was > 100 µM (inactive), the GI50 [8] was 74.5 µM (inactive) and the GI50 [9] was 42.9 µM (inactive). The GI50 [10] was 72.8 µM (inactive), the GI50 [11] was 48 µM (inactive) and the GI50 [13] was 18.7 µM (inactive). The GI50 [14] was 36.7 µM (inactive), the GI50 [15] was > 100 µM (inactive) and the GI50 [16] was 54 µM (inactive).
In the case of C/C(=N\O)C1CC2C=C(C#N)C1N(Cc1ccccc1)C2 (stereo not drawn), the GI50 [17] was > 100 µM (inactive), the GI50 [1] was 93.8 µM (inactive) and the GI50 [2] was > 100 µM (inactive). For the same compound, the GI50 [3] was 80.5 µM (inactive), the GI50 [4] was > 100 µM and the GI50 [19] was > 100 µM (inactive). The GI50 [5] was > 100 µM (inactive), the GI50 [6] was > 100 µM (inactive) and the GI50 [7] was 74.5 µM (inactive). For the same compound, the GI50 [8] was > 100 µM (inactive), the GI50 [9] was > 100 µM (inactive) and the GI50 [10] was > 100 µM (inactive). The GI50 [12] was > 100 µM (inactive), the GI50 [13] was > 100 µM (inactive) and the GI50 [14] was > 100 µM (inactive). The GI50 [15] was > 100 µM (inactive) and the GI50 [16] was > 100 µM (inactive).
